Assay: in vitro
Conditions: human, hela cells, % viability
`Cc1ccc(S(=O)(=O)Nc2ccc3c(c2)CC(=O)N3)cc1` [CBK287657] showed a viability at 28.5 h, 10 µM of 92.1%. In the case of `CCc1nc(CN2CCN(c3ccc4nc(C)nn4n3)CC2)cs1` [CBK306285], the viability at 28.5 h, 10 µM is reported as 89.1%. Work on `COc1cc(C)c(Cl)cc1S(=O)(=O)NCCCN1CCOCC1` [CBK269044] yielded a viability at 28.5 h, 10 µM of 97.1%. `Cc1c(C(=O)N(C)CC(F)(F)F)nnn1-c1ccc(F)cc1` [CBK282214] showed a viability at 28.5 h, 10 µM of 89.8%. Molecule `COc1ccccc1-c1ccc(CN2CCC(NC(C)=O)(c3ccc(F)cc3)CC2)cc1` [CBK286349] has a viability at 28.5 h, 10 µM of 90%. `CCOc1ccc(Oc2ccc(C(F)(F)F)cc2NC(=O)CCCC(=O)O)cc1` [CBK296993] showed a viability at 28.5 h, 10 µM of 90.7%. `CCOc1ccc(-n2c(N)c(C(=O)NCc3ccco3)sc2=S)cc1` [CBK265578] gave a viability at 28.5 h, 10 µM of 96.3%. `CCn1c(-c2nonc2NC(C)=O)nc2ccccc21` [CBK062645] showed a viability at 28.5 h, 10 µM of 80%. Work on `O=C1COc2ccc(S(=O)(=O)NCCc3ccccc3)cc2N1` [CBK270162] yielded a viability at 28.5 h, 10 µM of 114%. Molecule `CC(=O)Nc1ccc2nc(NC(=O)c3ccc4c(c3)OCCO4)sc2c1` [CBK287571] has a viability at 28.5 h, 10 µM of 101%. With `COc1cc(CN2CCN(Cc3ccccc3)CC2)cc([N+](=O)[O-])c1O` [CBK261574] the viability at 28.5 h, 10 µM was 99%. `[O-][n+]1c2c([n+]([O-])c3c1CCCC3)CCCC2` [CBK261714] showed a viability at 28.5 h, 10 µM of 99.5%. With `Cc1nc(CN2CCCN(S(=O)(=O)c3ccc(C(=O)c4ccccc4)cc3)CC2)c[nH]1` [CBK063029] the viability at 28.5 h, 10 µM was 113%. Molecule `C=CCn1c(SCC(=O)Nc2cccc(F)c2)nnc1-c1ccccc1O` [CBK269620] has a viability at 28.5 h, 10 µM of 83%. In the case of `C=CCN1C(=O)CC2(C1=O)C(=O)N(Cc1csc(-c3ccccc3)n1)c1ccc(Cl)cc12` (stereo not drawn) [CBK075445], the viability at 28.5 h, 10 µM is reported as 99.6%. Work on `O=C(NCc1ccccc1)C1CCCN(c2ncnc3[nH]cnc23)C1` (stereo not drawn) [CBK287916] yielded a viability at 28.5 h, 10 µM of 91.4%. In the case of `O=C(NCc1cccs1)c1ccc2c(=O)n3c(nc2c1)CCN(Cc1ccccc1)CC3` [CBK286448], the viability at 28.5 h, 10 µM is reported as 100%. `CS(=O)(=O)c1ccc(CN2C(=O)CC3(CCN(C(=O)c4ccc([N+](=O)[O-])cc4)CC3)C2=O)cc1` [CBK155019] gave a viability at 28.5 h, 10 µM of 99%. For `CCn1nc(CO)c2c1CCN(CC(=O)NCc1cccs1)C2` [CBK307638], the viability at 28.5 h, 10 µM was 92.8%. `CCCc1[nH]nc(O)c1CCc1ccccc1` [CBK075083] gave a viability at 28.5 h, 10 µM of 108%. `COc1ccc(CN(C(=O)c2cccc(-n3cnnn3)c2)C2CC2)cc1` [CBK256997] gave a viability at 28.5 h, 10 µM of 91.6%. With `Cn1ccnc1SCC(=O)Nc1ccc(I)cc1` [CBK057541] the viability at 28.5 h, 10 µM was 85.3%. In the case of `O=C(NC1CC(=O)N(CCc2ccc(F)cc2)C1)c1cn2ccsc2n1` (stereo not drawn) [CBK307263], the viability at 28.5 h, 10 µM is reported as 100%. For `CCN(CC)CC1CCCN(C(=O)Cn2ccc3ccc(F)cc32)C1` (stereo not drawn) [CBK282146], the viability at 28.5 h, 10 µM was 87.8%. In the case of `O=C(c1cccnc1)C1CCN(C(=O)Cc2ccsc2)CC1` [CBK283517], the viability at 28.5 h, 10 µM is reported as 90.7%. For `Cc1nnc2ncc(-c3ccccc3C(=O)N(C(C)C)C(C)C)cn12` [CBK307393], the viability at 28.5 h, 10 µM was 94.7%. `NC(=O)Cn1cc(C(=O)c2ccncc2)c(=O)c2cc(Cl)ccc21` [CBK288584] gave a viability at 28.5 h, 10 µM of 86%. For `O=c1ccc2ccc(-c3cccc(C(F)(F)F)c3)nc2[nH]1` [CBK073717], the viability at 28.5 h, 10 µM was 83.7%. In the case of `O=C(NCCCn1ccnc1)Nc1cccc(Cl)c1` [CBK265458], the viability at 28.5 h, 10 µM is reported as 93.9%. Molecule `CC(/C=C1\SC(=S)N(CCC(=O)Nc2ccc(O)c(C(=O)O)c2)C1=O)=C\c1ccccc1` [CBK263875] has a viability at 28.5 h, 10 µM of 107%. Work on `Cc1ccc(-c2noc(CN(C(=O)CCc3ccccc3)C(C)C)n2)cc1` [CBK269313] yielded a viability at 28.5 h, 10 µM of 99.3%. `Cc1ccc(SC(C)C(=O)Nn2cnnc2)cc1` (stereo not drawn) [CBK268570] gave a viability at 28.5 h, 10 µM of 93.3%. For `CCS(=O)(=O)NC1CCN(c2nc(C(F)(F)F)nc3[nH]cnc23)CC1` [CBK304588], the viability at 28.5 h, 10 µM was 86.8%. With `CC(C)c1cccc(-n2cc(O)c(C(=O)NCCCn3cccn3)n2)c1` [CBK305360] the viability at 28.5 h, 10 µM was 113%. `Cc1nc(C)c(C(=O)N2C3CCC2c2cc(Cl)cnc2C3)s1` (stereo not drawn) [CBK284953] gave a viability at 28.5 h, 10 µM of 103%. With `CCC(CC)C(=O)Nc1ccc([C@@H](O)[C@H]2COCC(=O)N2CC)cc1` [CBK289684] the viability at 28.5 h, 10 µM was 107%. `COC(=O)c1cc(C)nc2sc(C)c(N)c12` [CBK115343] gave a viability at 28.5 h, 10 µM of 85.8%. Work on `Cc1cc2c(o1)c1cnn(CC(=O)N(C(C)C)C(C)C)c(=O)c1n2C` [CBK282392] yielded a viability at 28.5 h, 10 µM of 83.2%. With `Cc1cccc(C(C)(C)C)c1OCCNCCN` [CBK265058G] the viability at 28.5 h, 10 µM was 118%. `CN(C)c1nc(N(C)C)n(C(=O)c2cccs2)n1` [CBK019805] showed a viability at 28.5 h, 10 µM of 99.3%. Work on `Cn1c2ccccc2n2c(SCc3nc4ccc([N+](=O)[O-])cc4[nH]3)nnc12` [CBK266853] yielded a viability at 28.5 h, 10 µM of 88.6%. `CCOC(=O)c1ccccc1NS(=O)(=O)c1cc(Cl)sc1Cl` [CBK045448] gave a viability at 28.5 h, 10 µM of 85.8%. `CCCn1c(SCC(=O)NCc2ccc(OC)cc2)n[nH]c1=O` [CBK297549] gave a viability at 28.5 h, 10 µM of 90.2%. In the case of `C[S+]([O-])CCNC(=O)Cn1c(-c2cccs2)cc2cccnc21` (stereo not drawn) [CBK282556], the viability at 28.5 h, 10 µM is reported as 89.3%. `OC(CNCCc1ccccc1)COc1c(Br)cccc1Br` (stereo not drawn) [CBK003071] showed a viability at 28.5 h, 10 µM of 94%.

— article PMC12040169 (PLOS Biology, 2025)
